Measurements from US20240239863A1, “GIP RECEPTOR AGONIST AND USE THEREOF” (HANGZHOU ZHONGMEIHUADONG PHARMACEUTICAL CO., LTD., priority 2022, published 2024).
Non-standard residues stand in square brackets, D forms with d. Residues, ends and D or L forms follow the SMILES beside them. Aib = CC(C)(N)C(=O)O

Each compound was assayed against hGLP-1R (Homo sapiens, UniProt P43220) (assay: Cell agonistic activity at GLP-1 receptor (Example 7)).
hGLP-1R, sequence (P43220 24-463): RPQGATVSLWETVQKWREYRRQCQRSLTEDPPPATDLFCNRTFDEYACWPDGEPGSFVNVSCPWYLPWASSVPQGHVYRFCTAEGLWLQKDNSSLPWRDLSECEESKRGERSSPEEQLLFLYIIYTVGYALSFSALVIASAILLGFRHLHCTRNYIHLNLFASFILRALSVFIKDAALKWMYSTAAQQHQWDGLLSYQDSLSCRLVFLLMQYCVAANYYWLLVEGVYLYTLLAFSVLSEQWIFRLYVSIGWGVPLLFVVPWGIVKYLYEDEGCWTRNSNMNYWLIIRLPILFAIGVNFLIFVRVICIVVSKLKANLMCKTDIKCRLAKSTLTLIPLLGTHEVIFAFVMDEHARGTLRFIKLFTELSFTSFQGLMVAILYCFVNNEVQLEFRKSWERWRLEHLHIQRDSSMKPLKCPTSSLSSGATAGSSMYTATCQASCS
Format: cell-based
In the case of CC[C@H](C)[C@H](NC(=O)[C@H](CO)NC(=O)[C@H](Cc1ccc(O)cc1)NC(=O)[C@H](CC(=O)O)NC(=O)[C@H](CO)NC(=O)[C@@H](NC(=O)[C@H](Cc1ccccc1)NC(=O)[C@@H](NC(=O)CNC(=O)[C@H](CCC(=O)O)NC(=O)C(C)(C)NC(=O)[C@@H](N)Cc1ccc(O)cc1)[C@@H](C)O)[C@@H](C)CC)C(=O)N[C@@H](C)C(=O)N[C@@H](CC(C)C)C(=O)N[C@@H](CC(=O)O)C(=O)N[C@@H](CCC(=O)O)C(=O)N[C@H](C(=O)N[C@@H](Cc1c[nH]cn1)C(=O)N[C@@H](CCC(N)=O)C(=O)N[C@@H](CCCCN)C(=O)N[C@@H](CC(=O)O)C(=O)N[C@@H](Cc1ccccc1)C(=O)N[C@H](C(=O)N[C@@H](CC(N)=O)C(=O)N[C@@H](Cc1c[nH]c2ccccc12)C(=O)N[C@@H](CC(C)C)C(=O)N[C@@H](CC(C)C)C(=O)N[C@@H](C)C(=O)N[C@@H](CCC(N)=O)C(=O)N[C@@H](CCCNC(=N)N)C(=O)NCC(=O)O)C(C)C)[C@@H](C)CC [Sequence 5] (H-Y[Aib]EGTFISDYSIALDEIHQKDFVNWLLAQRG-OH; N-terminus and C-terminus assumed), the EC50 is reported as over 0.1 nM.
CC[C@H](C)[C@H](NC(=O)[C@H](CO)NC(=O)[C@H](Cc1ccc(O)cc1)NC(=O)[C@H](CC(=O)O)NC(=O)[C@H](CO)NC(=O)[C@@H](NC(=O)[C@H](Cc1ccccc1)NC(=O)[C@@H](NC(=O)CNC(=O)[C@H](CCC(=O)O)NC(=O)C(C)(C)NC(=O)[C@@H](N)Cc1ccc(O)cc1)[C@@H](C)O)[C@@H](C)CC)C(=O)N[C@@H](C)C(=O)N[C@@H](CC(C)C)C(=O)N[C@@H](CC(=O)O)C(=O)N[C@@H](CCCNC(=N)N)C(=O)N[C@H](C(=O)N[C@@H](Cc1c[nH]cn1)C(=O)N[C@@H](CCC(N)=O)C(=O)N[C@@H](CCC(N)=O)C(=O)N[C@@H](CC(=O)O)C(=O)N[C@@H](Cc1ccccc1)C(=O)N[C@H](C(=O)N[C@@H](CCCCN)C(=O)N[C@@H](Cc1c[nH]c2ccccc12)C(=O)N[C@@H](CC(C)C)C(=O)N[C@@H](CC(C)C)C(=O)N[C@@H](C)C(=O)N[C@@H](CCC(N)=O)C(=O)N[C@@H](CCCNC(=N)N)C(=O)NCC(=O)O)C(C)C)[C@@H](C)CC [Sequence 13] (H-Y[Aib]EGTFISDYSIALDRIHQQDFVKWLLAQRG-OH; N-terminus and C-terminus assumed) was tested, and the EC50 was over 0.1 nM.
For CC[C@H](C)[C@H](NC(=O)[C@H](CO)NC(=O)[C@H](Cc1ccc(O)cc1)NC(=O)[C@H](CC(=O)O)NC(=O)[C@H](CO)NC(=O)[C@@H](NC(=O)[C@H](Cc1ccccc1)NC(=O)[C@@H](NC(=O)CNC(=O)[C@H](CCC(=O)O)NC(=O)C(C)(C)NC(=O)[C@@H](N)Cc1ccc(O)cc1)[C@@H](C)O)[C@@H](C)CC)C(=O)N[C@@H](C)C(=O)N[C@@H](CC(C)C)C(=O)N[C@@H](CC(=O)O)C(=O)N[C@@H](CCCCN)C(=O)N[C@H](C(=O)N[C@@H](Cc1c[nH]cn1)C(=O)N[C@@H](CCC(N)=O)C(=O)N[C@@H](CCC(=O)O)C(=O)N[C@@H](CC(=O)O)C(=O)N[C@@H](Cc1ccccc1)C(=O)N[C@H](C(=O)N[C@@H](CC(N)=O)C(=O)N[C@@H](Cc1c[nH]c2ccccc12)C(=O)N[C@@H](CC(C)C)C(=O)N[C@@H](CC(C)C)C(=O)N[C@@H](C)C(=O)N[C@@H](CCC(N)=O)C(=O)N[C@@H](CCCNC(=N)N)C(=O)NCC(=O)O)C(C)C)[C@@H](C)CC [Sequence 9] (H-Y[Aib]EGTFISDYSIALDKIHQEDFVNWLLAQRG-OH; N-terminus and C-terminus assumed), the EC50 was over 0.1 nM.
Work on CC[C@H](C)[C@H](NC(=O)[C@H](CO)NC(=O)[C@H](Cc1ccc(O)cc1)NC(=O)[C@H](CC(=O)O)NC(=O)[C@H](CO)NC(=O)[C@@H](NC(=O)[C@H](Cc1ccccc1)NC(=O)[C@@H](NC(=O)CNC(=O)[C@H](CCC(=O)O)NC(=O)C(C)(C)NC(=O)[C@@H](N)Cc1ccc(O)cc1)[C@@H](C)O)[C@@H](C)CC)C(=O)N[C@@H](C)C(=O)N[C@@H](CC(C)C)C(=O)N[C@@H](CC(=O)O)C(=O)N[C@@H](CCCNC(=N)N)C(=O)N[C@@H](CC(C)C)C(=O)N[C@@H](Cc1c[nH]cn1)C(=O)N[C@@H](CCC(N)=O)C(=O)N[C@@H](CCC(N)=O)C(=O)N[C@@H](CC(=O)O)C(=O)N[C@@H](Cc1ccccc1)C(=O)N[C@H](C(=O)N[C@@H](CC(N)=O)C(=O)N[C@@H](Cc1c[nH]c2ccccc12)C(=O)N[C@@H](CC(C)C)C(=O)N[C@@H](CC(C)C)C(=O)N[C@@H](C)C(=O)N[C@@H](CCC(N)=O)C(=O)N[C@@H](CCCCN)C(=O)NCC(=O)O)C(C)C [Sequence 18] (H-Y[Aib]EGTFISDYSIALDRLHQQDFVNWLLAQKG-OH; N-terminus and C-terminus assumed) yielded an EC50 of over 0.1 nM.
CC[C@H](C)[C@H](NC(=O)[C@H](CO)NC(=O)[C@H](Cc1ccc(O)cc1)NC(=O)[C@H](CC(=O)O)NC(=O)[C@H](CO)NC(=O)[C@@H](NC(=O)[C@H](Cc1ccccc1)NC(=O)[C@@H](NC(=O)CNC(=O)[C@H](CCC(=O)O)NC(=O)C(C)(C)NC(=O)[C@@H](N)Cc1ccc(O)cc1)[C@@H](C)O)[C@@H](C)CC)C(=O)N[C@@H](C)C(=O)N[C@@H](CC(C)C)C(=O)N[C@@H](CC(=O)O)C(=O)N[C@@H](CCCCN)C(=O)N[C@H](C(=O)N[C@@H](Cc1c[nH]cn1)C(=O)N[C@@H](CCC(N)=O)C(=O)N[C@@H](CCC(=O)O)C(=O)N[C@@H](CC(=O)O)C(=O)N[C@@H](Cc1ccccc1)C(=O)N[C@H](C(=O)N[C@@H](CCCCN)C(=O)N[C@@H](Cc1c[nH]c2ccccc12)C(=O)N[C@@H](CC(C)C)C(=O)N[C@@H](CC(C)C)C(=O)N[C@@H](C)C(=O)N[C@@H](CCC(N)=O)C(=O)N[C@@H](CCCCN)C(=O)NCC(=O)O)C(C)C)[C@@H](C)CC [Sequence 3] (H-Y[Aib]EGTFISDYSIALDKIHQEDFVKWLLAQKG-OH; N-terminus and C-terminus assumed) gave an EC50 of over 0.1 nM.
Compound CC[C@H](C)[C@H](NC(=O)[C@H](CO)NC(=O)[C@H](Cc1ccc(O)cc1)NC(=O)[C@H](CC(=O)O)NC(=O)[C@H](CO)NC(=O)[C@@H](NC(=O)[C@H](Cc1ccccc1)NC(=O)[C@@H](NC(=O)CNC(=O)[C@H](CCC(=O)O)NC(=O)C(C)(C)NC(=O)[C@@H](N)Cc1ccc(O)cc1)[C@@H](C)O)[C@@H](C)CC)C(=O)N[C@@H](C)C(=O)N[C@@H](CC(C)C)C(=O)N[C@@H](CC(=O)O)C(=O)N[C@@H](CCC(=O)O)C(=O)N[C@H](C(=O)N[C@@H](Cc1c[nH]cn1)C(=O)N[C@@H](CCC(N)=O)C(=O)N[C@@H](CCCCN)C(=O)N[C@@H](CC(=O)O)C(=O)N[C@@H](Cc1ccccc1)C(=O)N[C@H](C(=O)N[C@@H](CCCCN)C(=O)N[C@@H](Cc1c[nH]c2ccccc12)C(=O)N[C@@H](CC(C)C)C(=O)N[C@@H](CC(C)C)C(=O)N[C@@H](C)C(=O)N[C@@H](CCC(N)=O)C(=O)N[C@@H](CCCCN)C(=O)NCC(=O)O)C(C)C)[C@@H](C)CC [Sequence 4] (H-Y[Aib]EGTFISDYSIALDEIHQKDFVKWLLAQKG-OH; N-terminus and C-terminus assumed) has an EC50 of over 0.1 nM.
CC[C@H](C)[C@H](NC(=O)[C@H](CO)NC(=O)[C@H](Cc1ccc(O)cc1)NC(=O)[C@H](CC(=O)O)NC(=O)[C@H](CO)NC(=O)[C@@H](NC(=O)[C@H](Cc1ccccc1)NC(=O)[C@@H](NC(=O)CNC(=O)[C@H](CCC(=O)O)NC(=O)C(C)(C)NC(=O)[C@@H](N)Cc1ccc(O)cc1)[C@@H](C)O)[C@@H](C)CC)C(=O)N[C@@H](C)C(=O)N[C@@H](CC(C)C)C(=O)N[C@@H](CC(=O)O)C(=O)N[C@@H](CCCNC(=N)N)C(=O)N[C@@H](CC(C)C)C(=O)N[C@@H](Cc1c[nH]cn1)C(=O)N[C@@H](CCC(N)=O)C(=O)N[C@@H](CCC(=O)O)C(=O)N[C@@H](CC(=O)O)C(=O)N[C@@H](Cc1ccccc1)C(=O)N[C@H](C(=O)N[C@@H](CCCCN)C(=O)N[C@@H](Cc1c[nH]c2ccccc12)C(=O)N[C@@H](CC(C)C)C(=O)N[C@@H](CC(C)C)C(=O)N[C@@H](C)C(=O)N[C@@H](CCC(N)=O)C(=O)N[C@@H](CCCNC(=N)N)C(=O)NCC(=O)O)C(C)C [Sequence 15] (H-Y[Aib]EGTFISDYSIALDRLHQEDFVKWLLAQRG-OH; N-terminus and C-terminus assumed) showed an EC50 of over 0.1 nM.
For CC[C@H](C)[C@H](NC(=O)[C@H](CO)NC(=O)[C@H](Cc1ccc(O)cc1)NC(=O)[C@H](CC(=O)O)NC(=O)[C@H](CO)NC(=O)[C@@H](NC(=O)[C@H](Cc1ccccc1)NC(=O)[C@@H](NC(=O)CNC(=O)[C@H](CCC(=O)O)NC(=O)C(C)(C)NC(=O)[C@@H](N)Cc1ccc(O)cc1)[C@@H](C)O)[C@@H](C)CC)C(=O)N[C@@H](C)C(=O)N[C@@H](CC(C)C)C(=O)N[C@@H](CC(=O)O)C(=O)N[C@@H](CCCCN)C(=O)N[C@@H](CC(C)C)C(=O)N[C@@H](Cc1c[nH]cn1)C(=O)N[C@@H](CCC(N)=O)C(=O)N[C@@H](CCC(=O)O)C(=O)N[C@@H](CC(=O)O)C(=O)N[C@@H](Cc1ccccc1)C(=O)N[C@H](C(=O)N[C@@H](CC(N)=O)C(=O)N[C@@H](Cc1c[nH]c2ccccc12)C(=O)N[C@@H](CC(C)C)C(=O)N[C@@H](CC(C)C)C(=O)N[C@@H](C)C(=O)N[C@@H](CCC(N)=O)C(=O)N[C@@H](CCCNC(=N)N)C(=O)NCC(=O)O)C(C)C [Sequence 10] (H-Y[Aib]EGTFISDYSIALDKLHQEDFVNWLLAQRG-OH; N-terminus and C-terminus assumed), the EC50 was over 0.1 nM.
In the case of CC[C@H](C)[C@H](NC(=O)[C@H](CO)NC(=O)[C@H](Cc1ccc(O)cc1)NC(=O)[C@H](CC(=O)O)NC(=O)[C@H](CO)NC(=O)[C@@H](NC(=O)[C@H](Cc1ccccc1)NC(=O)[C@@H](NC(=O)CNC(=O)[C@H](CCC(=O)O)NC(=O)C(C)(C)NC(=O)[C@@H](N)Cc1ccc(O)cc1)[C@@H](C)O)[C@@H](C)CC)C(=O)N[C@@H](C)C(=O)N[C@@H](CC(C)C)C(=O)N[C@@H](CC(=O)O)C(=O)N[C@@H](CCCNC(=N)N)C(=O)N[C@H](C(=O)N[C@@H](Cc1c[nH]cn1)C(=O)N[C@@H](CCC(N)=O)C(=O)N[C@@H](CCC(N)=O)C(=O)N[C@@H](CC(=O)O)C(=O)N[C@@H](Cc1ccccc1)C(=O)N[C@H](C(=O)N[C@@H](CC(N)=O)C(=O)N[C@@H](Cc1c[nH]c2ccccc12)C(=O)N[C@@H](CC(C)C)C(=O)N[C@@H](CC(C)C)C(=O)N[C@@H](C)C(=O)N[C@@H](CCC(N)=O)C(=O)N[C@@H](CCCCN)C(=O)NCC(=O)O)C(C)C)[C@@H](C)CC [Sequence 14] (H-Y[Aib]EGTFISDYSIALDRIHQQDFVNWLLAQKG-OH; N-terminus and C-terminus assumed), the EC50 is reported as over 0.1 nM.
